ChEMBL document CHEMBL1201862, “PubChem BioAssay data set” (2004)
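These data come from cells grown in 96-well plates and exposed to compound for 48 hours at five concentrations. The concentration for 50% growth inhibition is given as GI50.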 Active and inactive are the calls of the source. No stated cut-off is given here; in the data, active = GI50 up to about 1.1 µM and inactive = higher.

Columns and labels:
Assay in all cases: NCI-60 cell line screen, 48 h
Malme-3M = system: Malme-3M
CAKI-1 = system: CAKI-1
SK-MEL-5 = system: SK-MEL-5
MDA-N = system: MDA-N
Hs-578T = system: Hs-578T
SR = system: SR
UACC-62 = system: UACC-62
SK-OV-3 = system: SK-OV-3
SW-620 = system: SW-620
A498 = system: A498
M14 = system: M14
UACC-257 = system: UACC-257
SF-268 = system: SF-268
A549 = system: A549
HT-29 = system: HT-29
SK-MEL-2 = system: SK-MEL-2
HCT-15 = system: HCT-15
NCI-H226 = system: NCI-H226
U-251 = system: U-251
MDA-MB-231 = system: MDA-MB-231
NCI-H23 = system: NCI-H23
NCI-H522 = system: NCI-H522
EKVX = system: EKVX
LOX IMVI = system: LOX IMVI
MDA-MB-435 = system: MDA-MB-435
NCI-H460 = system: NCI-H460
KM12 = system: KM12
SNB-75 = system: SNB-75
HOP-92 = system: HOP-92
MCF7 = system: MCF7
COLO 205 = system: COLO 205
SF-539 = system: SF-539
HL-60 = system: HL-60
SN12C = system: SN12C
OVCAR-3 = system: OVCAR-3
SK-MEL-28 = system: SK-MEL-28
OVCAR-8 = system: OVCAR-8
T47D = system: T47D
OVCAR-4 = system: OVCAR-4
HOP-62 = system: HOP-62
SF-295 = system: SF-295
UO-31 = system: UO-31
CCRF-CEM = system: CCRF-CEM
BT-549 = system: BT-549
SNB-19 = system: SNB-19
NCI/ADR-RES = system: NCI/ADR-RES
IGROV-1 = system: IGROV-1
786-0 = system: 786-0
OVCAR-5 = system: OVCAR-5
K562 = system: K562
HCC 2998 = system: HCC 2998
DU-145 = system: DU-145
PC-3 = system: PC-3
TK-10 = system: TK-10
ACHN = system: ACHN
HCT-116 = system: HCT-116
RPMI-8226 = system: RPMI-8226
MOLT-4 = system: MOLT-4
RXF 393 = system: RXF 393

What does the source list for `COc1ccc(/C=C2\CCCC(CN(C)C)C2=O)cc1` (stereo not drawn)?
GI50 (Malme-3M): 2.53 µM (inactive); GI50 (CAKI-1): 1.69 µM (inactive); GI50 (SK-MEL-5): 15.3 µM (inactive); GI50 (MDA-N): 2.96 µM (inactive); GI50 (Hs-578T): 3.02 µM (inactive); GI50 (SR): 1.02 µM (active); GI50 (UACC-62): 1.95 µM (inactive); GI50 (SK-OV-3): 9.89 µM (inactive); GI50 (SW-620): 0.891 µM (active); GI50 (A498): 16.8 µM (inactive); GI50 (M14): 1.72 µM (inactive); GI50 (UACC-257): 3.26 µM (inactive); GI50 (SF-268): 3.03 µM (inactive); GI50 (A549): 17.7 µM (inactive); GI50 (HT-29): 1.75 µM (inactive); GI50 (SK-MEL-2): 3.36 µM (inactive); GI50 (HCT-15): 1.24 µM; GI50 (NCI-H226): 18.1 µM (inactive); GI50 (U-251): 1.95 µM (inactive); GI50 (MDA-MB-231): 3.03 µM (inactive); GI50 (NCI-H23): 7.71 µM (inactive); GI50 (NCI-H522): 1.37 µM (inactive); GI50 (EKVX): 10.2 µM (inactive); GI50 (LOX IMVI): 1.34 µM (inactive); GI50 (MDA-MB-435): 2.61 µM (inactive); GI50 (NCI-H460): 21.1 µM (inactive); GI50 (KM12): 1.3 µM (inactive); GI50 (SNB-75): 7.45 µM (inactive); GI50 (HOP-92): 4.35 µM (inactive); GI50 (MCF7): 0.638 µM (active); GI50 (COLO 205): 2.1 µM (inactive); GI50 (SF-539): 14.9 µM (inactive); GI50 (HL-60): 0.618 µM (active); GI50 (SN12C): 2.56 µM (inactive); GI50 (OVCAR-3): 1.94 µM (inactive); GI50 (SK-MEL-28): 2.01 µM (inactive); GI50 (OVCAR-8): 3.64 µM (inactive); GI50 (T47D): 2.17 µM (inactive); GI50 (OVCAR-4): 1.76 µM (inactive); GI50 (HOP-62): 17.5 µM (inactive); GI50 (SF-295): 19.1 µM (inactive); GI50 (UO-31): 3.63 µM (inactive); GI50 (CCRF-CEM): 0.971 µM (active); GI50 (BT-549): 1.92 µM (inactive); GI50 (SNB-19): 7.36 µM (inactive); GI50 (NCI/ADR-RES): 2.63 µM (inactive); GI50 (IGROV-1): 2.69 µM (inactive); GI50 (786-0): 1.79 µM (inactive); GI50 (OVCAR-5): 9.08 µM (inactive); GI50 (K562): 1.24 µM (inactive); GI50 (HCC 2998): 6.71 µM (inactive); GI50 (DU-145): 16.6 µM (inactive); GI50 (PC-3): 5.74 µM (inactive); GI50 (TK-10): 3.36 µM (inactive); GI50 (ACHN): 2.29 µM (inactive); GI50 (HCT-116): 1.63 µM (inactive); GI50 (RPMI-8226): 0.223 µM (active); GI50 (MOLT-4): 0.774 µM (active)

With `CC(NNC(=O)c1cc[n+]([BH2-]C#N)cc1)c1cccc(F)c1` (stereo not drawn) as the compound, how does the GI50 (Malme-3M) read?
Its GI50 is > 100 µM (inactive).

And the GI50 (CAKI-1)?
Its GI50 is > 100 µM (inactive).

What about the GI50 (SK-MEL-5) of the same compound?
The GI50 was 94.2 µM (inactive).

And the GI50 (MDA-N)?
Its GI50 is > 100 µM (inactive).

And the GI50 (Hs-578T)?
Its GI50 is > 100 µM (inactive).

What about the GI50 (SR) of the same compound?
The GI50 was > 100 µM (inactive).

And the GI50 (UACC-62)?
Its GI50 is > 100 µM (inactive).

What about the GI50 (SW-620) of the same compound?
Its GI50 is > 100 µM (inactive).

What about the GI50 (A498) of the same compound?
Its GI50 is > 100 µM (inactive).

What about the GI50 (M14) of the same compound?
Its GI50 is > 100 µM (inactive).

What about the GI50 (UACC-257) of the same compound?
The GI50 was > 100 µM (inactive).

What about the GI50 (SF-268) of the same compound?
Its GI50 is > 100 µM (inactive).

And the GI50 (A549)?
Its GI50 is > 100 µM (inactive).

What about the GI50 (SK-MEL-2) of the same compound?
The GI50 was > 100 µM (inactive).

What about the GI50 (HCT-15) of the same compound?
The GI50 was over 100 µM.

And the GI50 (NCI-H226)?
Its GI50 is > 100 µM (inactive).

What about the GI50 (U-251) of the same compound?
Its GI50 is > 100 µM (inactive).

And the GI50 (MDA-MB-231)?
The GI50 was > 100 µM (inactive).

What about the GI50 (NCI-H522) of the same compound?
The GI50 was > 100 µM (inactive).

What about the GI50 (EKVX) of the same compound?
Its GI50 is > 100 µM (inactive).

And the GI50 (LOX IMVI)?
The GI50 was > 100 µM (inactive).

And the GI50 (MDA-MB-435)?
The GI50 was > 100 µM (inactive).

What about the GI50 (NCI-H460) of the same compound?
Its GI50 is > 100 µM (inactive).

What about the GI50 (KM12) of the same compound?
The GI50 was > 100 µM (inactive).

What about the GI50 (SNB-75) of the same compound?
Its GI50 is > 100 µM (inactive).

And the GI50 (HOP-92)?
The GI50 was > 100 µM (inactive).

And the GI50 (MCF7)?
Its GI50 is > 100 µM (inactive).

And the GI50 (COLO 205)?
The GI50 was > 100 µM (inactive).

What about the GI50 (SF-539) of the same compound?
The GI50 was > 100 µM (inactive).

And the GI50 (HL-60)?
Its GI50 is 50.5 µM (inactive).

What about the GI50 (RXF 393) of the same compound?
Its GI50 is > 100 µM (inactive).

What about the GI50 (SN12C) of the same compound?
The GI50 was > 100 µM (inactive).

And the GI50 (OVCAR-3)?
Its GI50 is > 100 µM (inactive).

What about the GI50 (SK-MEL-28) of the same compound?
The GI50 was > 100 µM (inactive).

And the GI50 (OVCAR-8)?
The GI50 was > 100 µM (inactive).

And the GI50 (T47D)?
The GI50 was > 100 µM (inactive).

What about the GI50 (OVCAR-4) of the same compound?
The GI50 was 69.8 µM (inactive).

What about the GI50 (SF-295) of the same compound?
The GI50 was > 100 µM (inactive).

What about the GI50 (UO-31) of the same compound?
The GI50 was > 100 µM (inactive).

And the GI50 (CCRF-CEM)?
Its GI50 is > 100 µM (inactive).

What about the GI50 (BT-549) of the same compound?
Its GI50 is > 100 µM (inactive).

And the GI50 (SNB-19)?
The GI50 was > 100 µM (inactive).

And the GI50 (NCI/ADR-RES)?
The GI50 was > 100 µM (inactive).

What about the GI50 (IGROV-1) of the same compound?
The GI50 was > 100 µM (inactive).

And the GI50 (786-0)?
Its GI50 is > 100 µM (inactive).

And the GI50 (OVCAR-5)?
The GI50 was > 100 µM (inactive).

What about the GI50 (K562) of the same compound?
The GI50 was > 100 µM (inactive).

What about the GI50 (HCC 2998) of the same compound?
Its GI50 is > 100 µM (inactive).

And the GI50 (DU-145)?
The GI50 was > 100 µM (inactive).

And the GI50 (PC-3)?
Its GI50 is > 100 µM (inactive).

What about the GI50 (TK-10) of the same compound?
Its GI50 is > 100 µM (inactive).

And the GI50 (ACHN)?
Its GI50 is > 100 µM (inactive).

What about the GI50 (HCT-116) of the same compound?
The GI50 was > 100 µM (inactive).

What about the GI50 (RPMI-8226) of the same compound?
Its GI50 is > 100 µM (inactive).

And the GI50 (MOLT-4)?
Its GI50 is > 100 µM (inactive).
